Measurements taken from patent publication US11446287B2, “Compounds and methods for EP300 or CBP modulation and indications therefor” (Opna Immuno-Oncology SA, priority 2019, dated 2022).

The molecules below were run against T1, Recombinant human BRD4 containing dual bromodomains (BRD4-BD12 (1-477)) (Homo sapiens, UniProt O60885) (assay: BRD4 Alphascreen binding assay).
T1 construct: Recombinant human BRD4 containing dual bromodomains (BRD4-BD12 (1-477)); made in house; host or cells: E. coli BL21-CodonPlus (DE3), modified pET vector
Summary of the method: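 AlphaScreen proximity between Ni-chelate-bound BRD4-BD12 (1-477) and streptavidin-captured H4 K5/K8/K12/K16-acetyl peptide measured after 1 h room-temperature compound incubation and 30 min with 7.5 μg/ml beads. Buffer: 50 mM HEPES pH 7.5, 50 mM NaCl, 0.01% BSA, 0.01% Triton X-100; data plate-normalized and four-parameter fit for IC50.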
`Cc1noc(C)c1-c1cnc2c(c1)c(-c1cnn(C(C)(C)C(=O)O)c1)cn2C(c1ccccn1)C1CCCC1` (centres unmarked) [P-0035, 2-(4-(1-(cyclopentyl(pyridin-2-yl)methyl)-5-(3,5-dimethylisoxazol-4-yl)-1H-pyrrolo[2,3-b]pyridin-3-yl)-1H-pyrazol-1-yl)-2-methylpropanoic acid] gave an IC50 of 1 to 8 µM.
With `Cc1noc(C)c1-c1cnc2c(c1)c(-c1cnn(CC(=O)O)c1)cn2C(c1ccccn1)C1CCCC1` (centres unmarked) [P-0036, 2-(4-(1-(cyclopentyl(pyridin-2-yl)methyl)-5-(3,5-dimethylisoxazol-4-yl)-1H-pyrrolo[2,3-b]pyridin-3-yl)-1H-pyrazol-1-yl)acetic acid] the IC50 was 1 to 8 µM.
`Cc1noc(C)c1-c1cnc2c(c1)c(-c1cnn(CC(C)(C)O)c1)cn2C(c1ccccn1)C1CCCC1` (centres unmarked) [P-0037, 1-(4-(1-(cyclopentyl(pyridin-2-yl)methyl)-5-(3,5-dimethylisoxazol-4-yl)-1H-pyrrolo[2,3-b]pyridin-3-yl)-1H-pyrazol-1-yl)-2-methylpropan-2-ol] gave an IC50 of 1 to 8 µM.
Work on `Cc1noc(C)c1-c1cnc2c(c1)c(-c1ccc(C(=O)O)c(Cl)c1)cn2C(c1ccccn1)C1CCCC1` (centres unmarked) [P-0038, 2-chloro-4-(1-(cyclopentyl(pyridin-2-yl)methyl)-5-(3,5-dimethylisoxazol-4-yl)-1H-pyrrolo[2,3-b]pyridin-3-yl)benzoic acid] yielded an IC50 of 1 to 8 µM.
`COC(=O)c1cc(-c2cn(C(c3ccccn3)C3CCCC3)c3ncc(-c4c(C)noc4C)cc23)ccn1` (centres unmarked) [P-0040, methyl 4-(1-(cyclopentyl(pyridin-2-yl)methyl)-5-(3,5-dimethylisoxazol-4-yl)-1H-pyrrolo[2,3-b]pyridin-3-yl)picolinate] gave an IC50 of 1 to 8 µM.
Molecule `Cc1noc(C)c1-c1cnc2c(c1)c(-c1ccnc(C(=O)O)c1)cn2C(C1CC1)C1CC1` [P-0041, 4-(1-(dicyclopropylmethyl)-5-(3,5-dimethylisoxazol-4-yl)-1H-pyrrolo[2,3-b]pyridin-3-yl)picolinic acid] has an IC50 of 0.0001 to 1 µM.
Molecule `Cc1noc(C)c1-c1cnc2c(c1)c(-c1ccnc(C(=O)O)c1)cn2Cc1ccccc1` [P-0042, 4-(1-benzyl-5-(3,5-dimethylisoxazol-4-yl)-1H-pyrrolo[2,3-b]pyridin-3-yl)picolinic acid] has an IC50 of 0.0001 to 1 µM.
With `Cc1noc(C)c1-c1cnc2c(c1)c(-c1ccnc(C(=O)O)c1)cn2C(c1ccccn1)C1CCC1` (centres unmarked) [P-0043, 4-(1-(cyclobutyl(pyridin-2-yl)methyl)-5-(3,5-dimethylisoxazol-4-yl)-1H-pyrrolo[2,3-b]pyridin-3-yl)picolinic acid] the IC50 was 1 to 8 µM.
Work on `Cc1noc(C)c1-c1cnc2c(c1)c(-c1ccnc(C(=O)O)c1)cn2Cc1ccccn1` [P-0044, 4-(5-(3,5-dimethylisoxazol-4-yl)-1-(pyridin-2-ylmethyl)-1H-pyrrolo[2,3-b]pyridin-3-yl)picolinic acid] yielded an IC50 of 0.0001 to 1 µM.
In the case of `Cc1noc(C)c1-c1cnc2c(c1)c(-c1ccnc(C(=O)O)c1)cn2CC1CC1` [P-0045, 4-(1-(cyclopropylmethyl)-5-(3,5-dimethylisoxazol-4-yl)-1H-pyrrolo[2,3-b]pyridin-3-yl)picolinic acid], the IC50 is reported as 0.0001 to 1 µM.
`COC(=O)c1cc(-c2cn(C(c3ccccn3)C3CCC3)c3ncc(-c4c(C)noc4C)cc23)ccn1` (centres unmarked) [P-0046, methyl 4-(1-(cyclobutyl(pyridin-2-yl)methyl)-5-(3,5-dimethylisoxazol-4-yl)-1H-pyrrolo[2,3-b]pyridin-3-yl)picolinate] showed an IC50 of 8 to 1000 µM.
Work on `COc1cc(C(=O)O)ccc1-c1cn([C@@H](C)c2ccccn2)c2ncc(-c3c(C)noc3C)cc12` [P-0047, (S)-4-(5-(3,5-dimethylisoxazol-4-yl)-1-(1-(pyridin-2-yl)ethyl)-1H-pyrrolo[2,3-b]pyridin-3-yl)-3-methoxybenzoic acid] yielded an IC50 of 1 to 8 µM.
`Cc1noc(C)c1-c1cnc2c(c1)c(-c1cccc(C(=O)O)c1)cn2Cc1ccccc1` [P-0048, 3-(1-benzyl-5-(3,5-dimethylisoxazol-4-yl)-1H-pyrrolo[2,3-b]pyridin-3-yl)benzoic acid] showed an IC50 of 1 to 8 µM.
`Cc1noc(C)c1-c1cnc2c(c1)c(-c1cccc(C(=O)O)c1)cn2Cc1ccccn1` [P-0049, 3-(5-(3,5-dimethylisoxazol-4-yl)-1-(pyridin-2-ylmethyl)-1H-pyrrolo[2,3-b]pyridin-3-yl)benzoic acid] was tested, and the IC50 was 8 to 1000 µM.
`Cc1noc(C)c1-c1cnc2c(c1)c(-c1cccc(C(=O)O)c1)cn2CC1CC1` [P-0050, 3-(1-(cyclopropylmethyl)-5-(3,5-dimethylisoxazol-4-yl)-1H-pyrrolo[2,3-b]pyridin-3-yl)benzoic acid] showed an IC50 of 8 to 1000 µM.
`Cc1noc(C)c1-c1cnc2c(c1)c(C#CC(C)(C)C(=O)O)cn2Cc1ccccc1` [P-0051, 4-(1-benzyl-5-(3,5-dimethylisoxazol-4-yl)-1H-pyrrolo[2,3-b]pyridin-3-yl)-2,2-dimethylbut-3-ynoic acid] was tested, and the IC50 was 8 to 1000 µM.
Molecule `COC(=O)c1cc(-n2cc(Cc3ccccc3)c3ncc(-c4c(C)noc4C)cc32)ccn1` [P-0052, methyl 4-(3-benzyl-6-(3,5-dimethylisoxazol-4-yl)-1H-pyrrolo[3,2-b]pyridin-1-yl)picolinate] has an IC50 of 1 to 8 µM.
`Cc1noc(C)c1-c1cnc2c(Cc3ccccc3)cn(-c3ccnc(C(=O)O)c3)c2c1` [P-0053, 4-(3-benzyl-6-(3,5-dimethylisoxazol-4-yl)-1H-pyrrolo[3,2-b]pyridin-1-yl)picolinic acid] showed an IC50 of 1 to 8 µM.
`Cc1noc(C)c1-c1cnc2c(C(=O)c3ccccc3)cn(-c3ccnc(C(=O)O)c3)c2c1` [P-0054, 4-(3-benzoyl-6-(3,5-dimethylisoxazol-4-yl)-1H-pyrrolo[3,2-b]pyridin-1-yl)picolinic acid] gave an IC50 of 0.0001 to 1 µM.
`Cc1noc(C)c1-c1cnc2c(c1)c(-c1ccc(C(=O)O)cc1OC(F)(F)F)cn2-c1ccc(C2CC2)nc1` [P-0388, 4-(1-(6-cyclopropylpyridin-3-yl)-5-(3,5-dimethylisoxazol-4-yl)-1H-pyrrolo[2,3-b]pyridin-3-yl)-3-(trifluoromethoxy)benzoic acid] showed an IC50 of 1 to 8 µM.
`Cc1noc(C)c1-c1cnc2c(c1)c(-c1ccc(C(=O)O)cc1OC(F)(F)F)cn2C1CCC(C#N)C1` (centres unmarked) [P-0389, 4-(1-(3-cyanocyclopentyl)-5-(3,5-dimethylisoxazol-4-yl)-1H-pyrrolo[2,3-b]pyridin-3-yl)-3-(trifluoromethoxy)benzoic acid] was tested, and the IC50 was 1 to 8 µM.
Work on `Cc1noc(C)c1-c1cnc2c(c1)c(-c1c(Cl)cc(C(=O)O)cc1OCC(F)F)cn2-c1cnc(C2CC2)nc1` [P-0390, 3-chloro-4-(1-(2-cyclopropylpyrimidin-5-yl)-5-(3,5-dimethylisoxazol-4-yl)-1H-pyrrolo[2,3-b]pyridin-3-yl)-5-(2,2-difluoroethoxy)benzoic acid] yielded an IC50 of 1 to 8 µM.
Molecule `Cc1noc(C)c1-c1cnc2c(c1)c(-c1c(Cl)cc(C(=O)O)cc1OC1CCC1)cn2-c1cnc(C2CC2)nc1` [P-0391, 3-chloro-5-cyclobutoxy-4-(1-(2-cyclopropylpyrimidin-5-yl)-5-(3,5-dimethylisoxazol-4-yl)-1H-pyrrolo[2,3-b]pyridin-3-yl)benzoic acid] has an IC50 of 1 to 8 µM.
`COc1ncc(-n2cc(-c3ccc(C(=O)O)cc3OC(F)(F)F)c3cc(-c4c(C)noc4C)cnc32)cn1` [P-0392, 4-(5-(3,5-dimethylisoxazol-4-yl)-1-(2-methoxypyrimidin-5-yl)-1H-pyrrolo[2,3-b]pyridin-3-yl)-3-(trifluoromethoxy)benzoic acid] showed an IC50 of 1 to 8 µM.
Work on `Cc1noc(C)c1-c1cnc2c(c1)c(-c1c(Cl)cc(C(=O)O)cc1OC(C)C)cn2-c1cnc(C2CC2)nc1` [P-0393, 3-chloro-4-(1-(2-cyclopropylpyrimidin-5-yl)-5-(3,5-dimethylisoxazol-4-yl)-1H-pyrrolo[2,3-b]pyridin-3-yl)-5-isopropoxybenzoic acid] yielded an IC50 of 1 to 8 µM.
`Cc1noc(C)c1-c1cnc2c(c1)c(-c1c(F)cc(C(=O)O)cc1OC1CC1)cn2C(C1CC1)C1CC1` [P-0394, 3-cyclopropoxy-4-(1-(dicyclopropylmethyl)-5-(3,5-dimethylisoxazol-4-yl)-1H-pyrrolo[2,3-b]pyridin-3-yl)-5-fluorobenzoic acid] showed an IC50 of 1 to 8 µM.
`Cc1noc(C)c1-c1cnc2c(c1)c(-c1c(Cl)cc(C(=O)O)cc1OC(F)(F)F)cn2-c1ncccc1C#N` [P-0395, 3-chloro-4-(1-(3-cyanopyridin-2-yl)-5-(3,5-dimethylisoxazol-4-yl)-1H-pyrrolo[2,3-b]pyridin-3-yl)-5-(trifluoromethoxy)benzoic acid] gave an IC50 of 1 to 8 µM.
In the case of `Cc1noc(C)c1-c1cnc2c(c1)c(-c1c(Cl)cc(C(=O)O)cc1OC1CCC1)cn2-c1ncccc1C#N` [P-0396, 3-chloro-4-(1-(3-cyanopyridin-2-yl)-5-(3,5-dimethylisoxazol-4-yl)-1H-pyrrolo[2,3-b]pyridin-3-yl)-5-cyclobutoxybenzoic acid], the IC50 is reported as 1 to 8 µM.
In the case of `Cc1noc(C)c1-c1cnc2c(c1)c(-c1c(F)cc(C(=O)O)cc1OC1CC1)cn2C1CCOCC1` [P-0397, 3-cyclopropoxy-4-(5-(3,5-dimethylisoxazol-4-yl)-1-(tetrahydro-2H-pyran-4-yl)-1H-pyrrolo[2,3-b]pyridin-3-yl)-5-fluorobenzoic acid], the IC50 is reported as 8 to 1000 µM.
With `CCOc1nc(C(=O)O)c(Cl)cc1-c1cn(C2CCOCC2)c2ncc(-c3c(C)noc3C)cc12` [P-0398, 3-chloro-5-(5-(3,5-dimethylisoxazol-4-yl)-1-(tetrahydro-2H-pyran-4-yl)-1H-pyrrolo[2,3-b]pyridin-3-yl)-6-ethoxypicolinic acid] the IC50 was 8 to 1000 µM.
For `Cc1noc(C)c1-c1cnc2c(c1)c(-c1ccc(C(=O)O)cc1OC(F)(F)F)cn2-c1ccc(=O)n(C)c1` [P-0399, 4-(5-(3,5-dimethylisoxazol-4-yl)-1-(1-methyl-6-oxo-1,6-dihydropyridin-3-yl)-1H-pyrrolo[2,3-b]pyridin-3-yl)-3-(trifluoromethoxy)benzoic acid], the IC50 was 1 to 8 µM.
Molecule `CCc1noc(C)c1-c1cnc2c(c1)c(-c1ccc(C(=O)O)cc1OC(F)(F)F)cn2C1CCOCC1` [P-0400, 4-(5-(3-ethyl-5-methylisoxazol-4-yl)-1-(tetrahydro-2H-pyran-4-yl)-1H-pyrrolo[2,3-b]pyridin-3-yl)-3-(trifluoromethoxy)benzoic acid] has an IC50 of 1 to 8 µM.
